The results in this text go back to patent US9527837B2, “Inhibitors of EZH2” (Eli Lilly and Company, priority 2014, dated 2016).

As usually defined, the IC50 is the concentration that inhibits the measured activity by half. Higher therefore signals a need for much substance.

In one assay the test system is Karpas-422 cells. Put plainly: Karpas-422 proliferation assay. It counts as cell-based. The note with it: Homo sapiens, KARPAS-422, 168 h; 7 days, Cell Titer GLO. The procedure: Plate Karpas-422 cells at a density of 5000 cells/100 μL/well in 96 well, black 96-well BD BioCoat Cellware, Poly-Lysine plates (BD Biosciences, Cat#354640). 40 μL of 10 mM test compound (representing starting final concentration of 20 μM) or add 100% DMSO to a Nunc 96-Well Polypropylene MicroWell Plate (Thermo Scientific Cat# #249944). Perform serial dilutions through the transfer of 20 μL from one well to the next. Add 5 μL of compound to a 245 μL/well of growth media in a separate Nunc 96-Well Polypropylene MicroWell Plate, and stamp 11 μL of the compound/media mix onto the cell plates. Incubate cell plates at 37° C. for 7 days. Add 100 μL/well of Cell Titer GLO® reagent (Promega, Cat# G7671) to the cell plates. Shake 2 minutes and measure luminescence using a plate reader.
Background: ATP-based viability assays read luminescence as a measure of living cells.

The test system of assay [1] is tri-methylated H3K27 in MDA MB-231 (EZH2 WT) cells. Put plainly: H3K27Me3 cell-based ELISA, MDA MB-231. The note with it: Homo sapiens, 48 hours. As for the experimental part: (§1) The purpose of this assay is to evaluate the ability of a compound to inhibit the functional activity of EZH2 in cells, via measurement of levels of cell tri-methylated H3K27. Plate MDA MB-231 (EZH2 WT) or Karpas-422 (EZH2 Y641N) cells at 3500/100 μL/well (for MDA MB-231) or 5,000 cells/100 μL/well (for Karpas-422) in black 96-well BD BioCoat Cellware, Poly-Lysine plates (BD Biosciences, Cat#354640). Prepare compound plates in a Nunc™ 96-Well Polypropylene MicroWell Plate (Thermo Scientific Cat# #249944) with the addition of 40 μL/well of 10 mM compound (representing starting final concentration of 20 μM) or 40 μL DMSO, then prepare serial dilutions through the transfer of 20 μL from one well to the next. Add 5 μL of test compound to 245 μL/well of growth media in a separate Nunc™ 96-Well Polypropylene MicroWell Plate, and stamp 11 μL of the compound/media mix onto the cell plates. Place cell plates in a 37° C. incubator for 48 hours. Remove plates from the incubator, place the plates at room temperature for 15-20 minutes, and spin down the plates at 1000 rpm for 5 minutes. Fix cells with 30 μL 16% paraformaldehyde for 15 minutes at room temperature. Remove the paraformaldehyde and permeabilize cells with 100 μL/well PBS minus calcium or magnesium (−/−) containing 0.1% TRITON® X-100 for 20 minutes at room temperature. […]
On the technique in general: In an ELISA, binding on a coated surface is turned into a signal by an enzyme label.

Assay [2] deals with tri-methylated H3K27 in Karpas-422 (EZH2 Y641N) cells. Put plainly: H3K27Me3 cell-based ELISA, Karpas-422. The note with it: Homo sapiens, 48 hours. The procedure:
as §1

The test system of assay [3] is tumor tri-methylated H3K27 (Karpas-422 xenograft). Kind of assay: ELISA-based measurement of tumor-derived tri-methylated H3K27, Karpas-422 xenograft. The format is in vivo. The following applies: mice, 50 mpk BID oral gavage, day 7, p<0.0001. The procedure:
(§2) The purpose of this assay is to evaluate the ability of a test compound to inhibit tumor EZH2 function and EZH2-mediated tumor growth in vivo.
To acid-extract histones from tumors, place tumor sections of approximately 0.5 cm by 0.25 cm or 20-30 mg in weight in Lysing Matrix D 500×2 mL Add RNASE/DNASE-free tubes with beads for homogenization (MP Biomedicals, Cat#6913-500). Add 650 μL of Acid Lysis Buffer (0.4 N HCl containing Protease Inhibitor Cocktail Tablets (Roche; Cat#11836153001)). Homogenize tumor samples 2-3 times at speed 6 m/second for 20 seconds in a FastPrep FP120 homogenizer. Set samples on ice for 1 hour to separate. Transfer supernatants to an eppendorf tube and place on a tube rotator to lyse overnight at 4° C. Spin samples down at 8000 rpm for 10 minutes at 4° C. Transfer supernatants to a new tube and measure for protein concentration.
Add 150 μL/well of MSD Blocking Solution A (Meso Scale Discovery (MSD); final concentration of 3%) to a MULTI-SPOT® Tri-Methyl-Histone H3(K27) Singleplex plate (MSD; Cat#: N45CA-1). Shake at room temperature for 1 hour. Wash the plate with 1×MSD Tris Wash Buffer™ (MSD), (3×). Dispense 0.25 μg of tumor lysate in 25 μL Acid Lysis Buffer per well in triplicate. Shake overnight at 4° C. […] Add 150 μL/well 1×MSD® Read Buffer and measure chemoelectroluminescence using a MSD SECTOR® Imager 6000 instrument.

Assay [4] relates to tumor TNFRSF21 gene expression (Karpas-422 xenograft). Put plainly: qPCR-based measurement of tumor-derived TNFRSF21 mRNA expression, Karpas-422 xenograft. The format is in vivo, mice. The following applies: 50 mpk BID oral gavage, day 7, normalized to GAPDH, p<0.0001. The procedure:
as §2
To isolate RNA from tumor tissue, place tumor sections of approximately 0.5 cm by 0.25 cm or 20-30 mg in weight in Lysing Matrix D 500×2 mL Add RNASE/DNASE-free tubes with beads for homogenization (MP Biomedicals, REF: 6913-500). Add 650 μL of RLT buffer from RNeasy® Kit (Qiagen; Cat#74104). Homogenize samples 2 to 3 times at speed 6 for 20 seconds in the FastPrep FP120 homogenizer. Set samples on ice to cool for 10 minutes. Centrifuge at 13 000 rpm for 10 minutes at 4° C. Place supernatants into a QIA tube and isolate RNA using the RNeasy® Kit (Qiagen; Cat#74104).
Prepare cDNA from 3 μg of tumor RNA using the High Capacity cDNA Reverse Transcription Kit (Applied Biosystems; Cat#4368813) and incubate samples in a PCR Thermocycler using the following cycle conditions: 10 minutes at 25° C.; 2 hours at 37° C., hold at 4° C. Amplify cDNA product using Thermo Scientific ABsolute Blue QPCR ROX Mix (Applied Biosystems; Cat# AB-4139) and Taqman probes for TNFRSF21 (Applied Biosystems; Cat# Hs01560899_m1) and housekeeping gene GAPDH (Applied Biosystems; Cat# Hs02758991-g1) in the Applied Biosystems ViiA 7™ Real-Time PCR cycler. Calculate TNFRSF21 cycle threshold values and normalize to its respective sample's GAPDH levels. […]

Take `COC1CN([C@H]2CC[C@H]([C@H](C)c3scc(C(=O)NCc4c(C)cc(C)[nH]c4=O)c3C)CC2)C1` [Example 2, N-[(4,6-Dimethyl-2-oxo-1,2-dihydropyridin-3-yl)methyl]-5-{(1S)-1-[trans-4-(3-methoxyazetin-1-yl)cyclohexyl]ethyl}-4-methylthiophene-3-carboxamide]: the IC50 was 526 nM in the assay with Karpas-422 cells, 9.02 ± 2.69 nM in assay [1] and 144 ± 232 nM in assay [2].
`COC1CN([C@H]2CC[C@H]([C@@H](C)c3scc(C(=O)NCc4c(C)cc(C)[nH]c4=O)c3C)CC2)C1` [Example 1, N-[(4,6-Dimethyl-2-oxo-1,2-dihydropyridin-3-yl)methyl]-5-{(1R)-1-[trans-4-(3-methoxyazetidin-1-yl)cyclohexyl]ethyl}-4-methylthiophene-3-carboxamide]: the results for the IC50 (in the assay on Karpas-422 cells; in assay [1]; in assay [2]) were 49.7 ± 33.9 nM, 1.88 ± 0.66 nM and 3.79 ± 1.02 nM, respectively. For the same compound, the “inhibition of tumor methylation” value in assay [3] came to 53%. For the same compound, in assay [4], the “increase in tumor TNFRSF21 gene expression” value is given as 25 fold.
